Assays:
T3 RNA polymerase = molecular target: T1, T3 RNA polymerase (Enterobacteria phage T3, UniProt P07659); experiment: In vitro transcription reaction (MAXIscript kit), UTP[α-32P] incorporation; type: biochemical; conditions: 20 mM reducing reagent
T1 construct: purchased Ambion, Inc
Experimental: (§1) FIG. 3. […] Transcriptions were performed with T7, T3 and SP6 RNA polymerase in the presence and absence of 20 mM DTT. For each RNA polymerase reaction, pTRI-Xef DNA was the template and UTP[α^32P] was included to measure the efficiency of transcription. Duplicates were performed for each reaction. TCA precipitations were performed on each transcription reaction to measure the percent of the UTP[α^32P] incorporated into RNA.
(§2) The transcription reactions were based on the MAXIscript™ transcription kit (Ambion, Inc.). The following were assembled with or without 20 mM reducing reagent in a final volume of 18 μl: NTPs (0.5 mM each), 1 μg linearized DNA template, 2 μl 10 × transcription buffer, and 0.2 μl UTP [α-^32P] (800 Ci/mmol). The reaction mixtures were incubated 60° C. for 10 minutes and then 2 μl of the either SP6, T7 or T3 RNA polymerase (10 units/μl) were added to the reactions, incubated 30° C. for 60 minutes and then TCA precipitated to assess the incorporation of the radioactive label.

T7 RNA polymerase = molecular target: T2, T7 RNA polymerase (Escherichia phage T7, UniProt P00573); experiment: as above; type: biochemical; conditions: 20 mM reducing reagent
T2 construct: purchased Ambion, Inc
Experimental: as §1, §2

SP6 RNA polymerase = molecular target: T3, SP6 RNA polymerase (Enterobacteria phage SP6, UniProt P06221); experiment: as above; type: biochemical; conditions: 20 mM reducing reagent
T3 construct: purchased Ambion, Inc
T3 sequence (P06221 1-874): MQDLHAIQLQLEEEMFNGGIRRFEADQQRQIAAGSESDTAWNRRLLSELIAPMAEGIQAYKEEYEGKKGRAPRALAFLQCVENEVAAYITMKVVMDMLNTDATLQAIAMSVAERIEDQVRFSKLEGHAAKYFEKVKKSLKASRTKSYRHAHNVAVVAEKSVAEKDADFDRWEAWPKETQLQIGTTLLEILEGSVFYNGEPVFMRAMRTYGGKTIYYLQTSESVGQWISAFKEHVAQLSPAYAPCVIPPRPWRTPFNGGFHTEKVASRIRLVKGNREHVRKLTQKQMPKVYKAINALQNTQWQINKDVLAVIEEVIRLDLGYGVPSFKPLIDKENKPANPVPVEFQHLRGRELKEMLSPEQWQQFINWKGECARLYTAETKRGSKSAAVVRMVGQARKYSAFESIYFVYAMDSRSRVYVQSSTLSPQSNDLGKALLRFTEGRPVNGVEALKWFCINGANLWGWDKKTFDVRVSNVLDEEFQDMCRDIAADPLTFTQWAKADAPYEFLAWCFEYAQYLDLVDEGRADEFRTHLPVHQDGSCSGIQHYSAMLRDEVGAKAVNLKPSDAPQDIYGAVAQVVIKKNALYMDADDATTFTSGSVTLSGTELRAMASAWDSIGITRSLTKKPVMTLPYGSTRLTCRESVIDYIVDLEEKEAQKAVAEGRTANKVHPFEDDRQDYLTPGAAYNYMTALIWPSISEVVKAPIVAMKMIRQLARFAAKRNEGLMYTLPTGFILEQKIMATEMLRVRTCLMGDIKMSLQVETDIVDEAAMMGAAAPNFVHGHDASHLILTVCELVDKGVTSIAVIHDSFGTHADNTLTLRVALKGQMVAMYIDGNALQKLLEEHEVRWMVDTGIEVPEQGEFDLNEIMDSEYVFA
Experimental: as §1, §2

[1] = test system: RNase mixture (RNase A, RNase 1, RNase T1); experiment: Non-isotopic RNase inactivation assay (mouse total RNA, agarose gel); type: biochemical, human, E. coli and a fungus
From the text: The inventors routinely perform assays on RNA designed to assess RNase activity in a sample. Two different assays are typically used for the detection of ribonuclease activity, non-isotopic and isotopic. […] In both assays, the inactivation process is typically performed on a mixture of three different ribonucleases: RNase A, RNase 1, and RNase T1. Each ribonuclease is purified from a different species: […], E. coli and a fungus, respectively. The three RNases are very different from each other in their origin, substrate specificity and protein sequence. In this way, the inactivation process can test three completely different but well characterized ribonucleases. The standard stock RNase mixture employed in the following examples is prepared by combining 1 μl RNase 1 (100 U/μl; Ambion), 1 μl RNase cocktail (RNase A, 0.5 U/μl; RNase T1, 20 U/μl, Ambion) and 98 μl water. The non-isotopic assay uses total RNA isolated from mouse as the substrate for the RNase mixture. […] A quantity of 4 μg of total RNA isolated from mouse liver or brain was dissolved in an aqueous solution, usually water or 1 mM sodium citrate (pH 6.6). The treated ribonuclease sample was added to the total RNA and then incubated at 37° C. for 1 or 16 hours, depending on the sensitivity desired for the assay. After incubation, the RNA was fractionated in a formaldehyde 1% agarose gel. The RNA was detected by staining with ethidium bromide and then illuminating the gel with ultraviolet light. The RNA fluoresces in the gel. Untreated total RNA was also fractionated as a control with the test samples for comparative purposes. […] Intact total RNA has two major bands produced by the 28S and 18S ribosomal RNA. […] The RNase cocktail was made to various concentrations in different buffers in different DTT concentrations and incubated at 37° C. or 60° C. for 20 minutes. Total mouse RNA was added to the treated RNase mixture and incubated at 37° C. for one hour, fractionated in a formaldehyde denaturing 1% agarose gel and the RNA visualized by ethidium bromide staining and UV fluorescence.

DNase I = DNase I (Bos taurus, UniProt P00639); experiment: DNase I activity after reducing/heat treatment, plasmid DNA degradation; type: biochemical; conditions: 20 mM reducing reagent in water; DNase I 0.4 units/μl; 60° C. for 20 minutes
Experimental: DNase I is commonly used to degrade contaminating DNA in RNA preparations. To test whether the inactivation method affected DNase I activity, DNase I (final concentration of 0.4 units/μl) was added to water containing 20 mM DTT, DTE or β-mercaptoethanol. The mixture was incubated at 60° C. for 20 minutes. After the heat treatment, the DNase I activity was tested by incubating the treated DNase I with plasmid DNA (0.2 μg/μl ) at 37° C. for one hour followed by electrophoresis in a 1% agarose gel.

[2] = molecular target: T4, MMLV reverse transcriptase (Moloney murine leukemia virus, UniProt P03355); experiment: Reverse transcription reaction (RETROscript kit), dCTP[α-32P] incorporation; type: biochemical; conditions: 20 mM reducing reagent
T4 construct: purchased Ambion, Inc
Experimental: (§3) FIG. 2. […] Reverse transcriptions were performed using the RETROscript™ kit (Ambion, Inc.). Mouse total RNA in DEPC-treated water was reverse transcribed with either MMLV or AMV reverse transcriptase in the presence or absence of 20 mM DTT. dCTP[α^32P] was included in the reactions to measure the efficiency of reverse transcription. Following incubation at 42° C. for 1 h, 5 μl of each reaction was subjected to TCA precipitation to measure the amount of dCTP[α^32P] incorporated into cDNA by reverse transcription.
(§4) The reverse transcription reactions were performed using the RETROscript™ kit (Ambion, Inc.). The following were assembled with or without 20 mM of the reducing reagents in a final volume of 19 μl: dNTPs (0.5 mM each), oligo dT (5 μM), 0.4 μl dCTP[α-^32p] (3000 Ci/mmol), 10 mM Tris-HCl (pH 8.3): 50 mM KCl: 1.5 mM MgCl2, mouse brain total RNA (4 μg). The reaction mixtures were incubated at 65° C. for 10 minutes. 1 μl (100 units) of AMV or MMLV reverse transcriptase were added and then the reactions were incubated at 42° C. for 1 hour. Reverse transcription by either enzyme was not inhibited by DTT (FIG. 2) or by DTE or β-mercaptoethanol.

[3] = test system: AMV reverse transcriptase; experiment: as above; type: biochemical; conditions: 20 mM reducing reagent
Experimental: as §3, §4

[4] = reducing reagent 20 mM, RNase mixture 200 ng/ml, 60° C. for 20 minutes

DNase I, sequence (P00639 23-282): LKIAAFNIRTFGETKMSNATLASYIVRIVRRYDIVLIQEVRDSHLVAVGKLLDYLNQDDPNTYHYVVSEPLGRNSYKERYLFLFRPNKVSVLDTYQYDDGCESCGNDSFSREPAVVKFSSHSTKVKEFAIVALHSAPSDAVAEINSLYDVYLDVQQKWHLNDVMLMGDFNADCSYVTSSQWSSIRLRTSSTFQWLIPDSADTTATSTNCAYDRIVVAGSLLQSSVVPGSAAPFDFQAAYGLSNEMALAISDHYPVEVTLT
T1 sequence (P07659 whole entry): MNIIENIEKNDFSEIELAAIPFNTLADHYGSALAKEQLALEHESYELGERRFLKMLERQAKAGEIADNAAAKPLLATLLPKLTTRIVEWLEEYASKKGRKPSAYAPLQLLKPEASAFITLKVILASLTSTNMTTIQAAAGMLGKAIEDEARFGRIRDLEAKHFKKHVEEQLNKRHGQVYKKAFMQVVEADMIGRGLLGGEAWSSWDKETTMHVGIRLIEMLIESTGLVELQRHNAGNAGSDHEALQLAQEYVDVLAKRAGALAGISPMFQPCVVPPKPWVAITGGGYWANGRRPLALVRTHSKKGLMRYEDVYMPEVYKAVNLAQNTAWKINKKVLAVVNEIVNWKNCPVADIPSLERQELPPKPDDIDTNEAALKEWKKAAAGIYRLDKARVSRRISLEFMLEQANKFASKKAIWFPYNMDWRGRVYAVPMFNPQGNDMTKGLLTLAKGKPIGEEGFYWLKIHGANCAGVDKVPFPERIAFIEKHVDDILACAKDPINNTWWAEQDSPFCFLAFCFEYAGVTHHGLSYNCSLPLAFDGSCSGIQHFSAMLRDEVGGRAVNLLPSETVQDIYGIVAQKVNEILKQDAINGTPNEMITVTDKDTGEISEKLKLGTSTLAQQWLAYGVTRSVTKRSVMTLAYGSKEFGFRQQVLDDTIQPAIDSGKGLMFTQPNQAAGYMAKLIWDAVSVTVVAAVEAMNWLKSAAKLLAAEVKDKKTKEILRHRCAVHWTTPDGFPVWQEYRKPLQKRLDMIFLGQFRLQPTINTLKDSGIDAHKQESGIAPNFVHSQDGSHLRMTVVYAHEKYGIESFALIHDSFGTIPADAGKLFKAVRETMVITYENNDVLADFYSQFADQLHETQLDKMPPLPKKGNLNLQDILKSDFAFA
T2 sequence (P00573 whole entry): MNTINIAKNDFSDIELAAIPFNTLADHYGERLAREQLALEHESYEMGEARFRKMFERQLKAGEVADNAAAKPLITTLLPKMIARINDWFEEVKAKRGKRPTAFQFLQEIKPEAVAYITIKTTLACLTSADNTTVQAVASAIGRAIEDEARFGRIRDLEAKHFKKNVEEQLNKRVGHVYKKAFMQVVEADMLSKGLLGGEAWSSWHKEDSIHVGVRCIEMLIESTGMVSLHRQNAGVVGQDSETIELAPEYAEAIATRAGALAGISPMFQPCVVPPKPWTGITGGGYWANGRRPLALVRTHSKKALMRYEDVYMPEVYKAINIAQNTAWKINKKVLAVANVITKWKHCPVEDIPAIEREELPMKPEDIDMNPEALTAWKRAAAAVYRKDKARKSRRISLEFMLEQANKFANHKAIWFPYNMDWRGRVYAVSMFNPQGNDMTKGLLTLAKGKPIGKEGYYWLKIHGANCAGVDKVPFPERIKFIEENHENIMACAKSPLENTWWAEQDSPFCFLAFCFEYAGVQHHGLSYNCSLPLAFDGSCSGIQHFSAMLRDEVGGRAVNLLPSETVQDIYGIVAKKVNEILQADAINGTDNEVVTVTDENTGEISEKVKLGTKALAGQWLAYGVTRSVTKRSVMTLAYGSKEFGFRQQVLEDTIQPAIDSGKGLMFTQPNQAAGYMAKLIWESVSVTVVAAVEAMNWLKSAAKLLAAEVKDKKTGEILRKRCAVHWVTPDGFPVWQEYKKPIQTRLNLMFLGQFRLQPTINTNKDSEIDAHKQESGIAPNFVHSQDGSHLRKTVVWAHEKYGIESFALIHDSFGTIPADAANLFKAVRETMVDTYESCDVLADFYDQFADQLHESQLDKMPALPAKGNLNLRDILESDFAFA

Row | RNase mixture inactivation ([1]; heated DTT diluted to 20 mM, RNase mixture 200 ng/ml in water, 60° C. for 20 minutes) | RNase mixture inactivation ([1]; 10 mM cysteine, RNase mixture 200 ng/ml, 1 mM sodium citrate (pH 6.4), 68° C. for 20 minutes) | RNase mixture inactivation ([1]; 20 mM cysteine, RNase mixture 200 ng/ml, 1 mM sodium citrate (pH 6.4), 68° C. for 20 minutes) | RNase mixture inactivation ([1]; 40 mM cysteine, RNase mixture 200 ng/ml, 1 mM sodium citrate (pH 6.4), 68° C. for 20 minutes) | RNase mixture inactivation ([1]; 60 mM cysteine, RNase mixture 200 ng/ml, 1 mM sodium citrate (pH 6.4), 68° C. for 20 minutes) | Structure (SMILES) | inhibition of T3 RNA polymerase transcription (T3 RNA polymerase) | inhibition of T7 RNA polymerase transcription (T7 RNA polymerase) | inhibition of SP6 RNA polymerase transcription (SP6 RNA polymerase) | RNase mixture inactivation [1, 4] | DNase I activity after reducing/heat treatment (DNase I) | inhibition of reverse transcription by MMLV reverse transcriptase [2] | inhibition of reverse transcription by AMV reverse transcriptase [3]
1 |  |  |  |  |  | O[C@H](CS)[C@@H](O)CS [DTE, dithioerythritol] | None of the three polymerases were inhibited | None of the three polymerases were inhibited | None of the three polymerases were inhibited | inactivate RNase activity completely | not affected | not inhibited | not inhibited
2 | did not inactivate |  |  |  |  | OC1CSSCC1O (stereo not shown) [oxidized DTT] |  |  |  |  |  |  | 
3 |  |  |  |  |  | OCCS [β-mercaptoethanol] | None of the three polymerases were inhibited | None of the three polymerases were inhibited | None of the three polymerases were inhibited | inactivate RNase activity completely | not affected | not inhibited | not inhibited
4 |  | inactivated | inactivated | inactivated | inactivated | N[C@@H](CS)C(=O)O [cysteine] |  |  |  |  |  |  | 

Source: patent US6825340B2, “Methods and reagents for inactivating ribonucleases” (Ambion, Inc., priority 1998, dated 2004)
